Test results from the supplement of paper PMC6723410.

test system: GUMC-403; assay: viability at highest tested concentration (max response) relative to DMSO (% of DMSO control); higher = less cytotoxic; details: library / dose series: MIPE library, 11-point 1:3 dilution; top concentration 46.1 µM; 48 h
Procedure, shortened: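 The value is viability at the highest tested concentration, expressed relative to vehicle control. Patient-derived GUMC-403 papilloma cells, grown by conditional reprogramming, were seeded at 700/well in 5 μL F + Y medium in 1536-well plates. After an overnight incubation at 37 °C, they received 23 nL of compound by pin tool for 48 h. Readout was CellTiter-Glo luminescence on a ViewLux, normalised to vehicle wells (100%) and empty wells (0%).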

| SMILES | viability |
| --- | --- |
| Cc1nc(NC(=O)N2CCC[C@H]2C(N)=O)sc1-c1ccnc(C(C)(C)C(F)(F)F)c1 | 42.4 |
| ClC/1=C(NCCN2CCOCC2)/C(=O)C3=C(C=CC=N3)C1=O | 2.43 |
| COCCCOc1cc(C[C@@H](C[C@H](N)[C@@H](O)C[C@H](C(=O)NCC(C)(C)C(N)=O)C(C)C)C(C)C)ccc1OC | 130 |
| C[S+](=O)([O-])c1cc(F)cc2c3c(n(Cc4ccc(Cl)cc4)c12)[C@@H](CC(=O)O)CC3 | 128 |
| CNC(=O)c1ccccc1Sc1ccc2c(/C=C/c3ccccn3)n[nH]c2c1 | 104 |
| C[C@@H](Cc1cc2c(c(C(N)=O)c1)N(CCCO)CC2)NCCOc1ccccc1OCC(F)(F)F | 112 |
| C1CN\2C[C@@H](\N=C2S1)C3=CC=CC=C3 | 125 |
| NC/1=N/C2=C([NH]C=N2)C(=S)N1 | 97.1 |
| CCCCN(CCCC)CCC(O)c1cc2c(Cl)cc(Cl)cc2c2cc(C(F)(F)F)ccc12 (stereo not drawn) | 107 |
| Cn1cnc(-c2cc3nccc(Oc4ccc(NC(=S)NC(=O)Cc5ccccc5)cc4F)c3s2)c1 | 96.8 |
| CCCCC(=O)O[C@]1(C(=O)CO)[C@H](C)C[C@H]2[C@@H]3CCC4=CC(=O)C=C[C@]4(C)[C@@]3(F)[C@@H](O)C[C@@]21C | 121 |
| CN(C)CCN1C(=O)c2cccc3cc(N)cc(c23)C1=O | 62.2 |
| COC1=CC=C(C=C1O)C/2=C/C(=O)C3=C(O2)C=C(O[C@@H]4O[C@H](CO[C@@H]5O[C@@H](C)[C@H](O)[C@@H](O)[C@H]5O)[C@@H](O)[C@H](O)[C@H]4O)C=C3O | 117 |
| CCC[C@H](NC(=O)[C@@H]1[C@H]2CCC[C@H]2CN1C(=O)[C@@H](NC(=O)[C@@H](NC(=O)c1cnccn1)C1CCCCC1)C(C)(C)C)C(=O)C(=O)NC1CC1 | 117 |
| OCCN1CCN(CCCN2c3ccccc3Sc3ccc(C(F)(F)F)cc32)CC1 | 97.2 |
| CC(C)c1ccc(Cn2ccc3c4c(N)nc(NC5CC5)nc4ccc32)cc1 | 106 |
| O=C(c1ccc(F)cc1)C1CCN(CCn2c(=O)[nH]c3ccccc3c2=O)CC1 | 110 |
| CCCC(CCC)C(=O)[O-] | 88.8 |
| Cc1ccc(/C=N/NC(=O)c2ccccc2Oc2ccccc2)o1 | 92 |
| COc1ncnc(N[S+](=O)([O-])c2ccc(N)cc2)c1OC | 137 |
| CC(=O)NC[C@H]1CN(c2ccc(N3CCOCC3)c(F)c2)C(=O)O1 | 120 |

| SMILES | viability |
| --- | --- |
| CC1=CC=C(C=C1)N(C\C2=N\CCN2)C3=CC=CC(=C3)O | 116 |
| NNc1nncc2ccccc12 | 117 |
| C[N]1C=C(C2=C1C=CC=C2)\C3=C(\C(=O)NC3=O)C4=C5CC(CN)CC[N]5C6=C4C=CC=C6 (stereo not drawn) | 42.9 |
| Oc1ccc([C@@H]2Oc3ccc(O)cc3[C@@H]3CCC[C@@H]32)cc1 | 96.3 |
| Cc1cc(O)c2c(c1)C(=O)c1cc(O)cc(O)c1C2=O | 114 |
| O=C(NCc1ccncc1)C12C[C@H]3C[C@@H](C1)CC(c1ccc(Cl)cc1)(C3)C2 | 108 |
| COC1=CC=C2[N](CCCN(C)C)C=C(C2=C1)C/3=C(/C(=O)NC3=O)C4=C[NH]C5=C4C=CC=C5 | 102 |
| CC(Oc1ccc(O)cc1)(P(=O)(O)O)P(=O)(O)O | 112 |
| O=C(c1ccc(C(=O)N2CCC(N3CCCC3)CC2)c(Nc2ccccc2)c1)N1CCC(N2CCCC2)CC1 | 109 |
| COc1cnc(N[S+](=O)([O-])c2ccc(N)cc2)nc1 | 115 |
| C/C=C1\C2C=C(C)CC1(N)c1ccc(=O)[nH]c1C2 (stereo not drawn) | 118 |
| CCCC[N+]1(C)[C@@H]2CC(OC(=O)[C@H](CO)c3ccccc3)C[C@H]1[C@@H]1O[C@@H]12 (stereo partly drawn) | 114 |
| C[C@]1(CO)CN(c2cc(C(=O)Nc3ccc4c(c3)-c3c(c(C(N)=O)nn3-c3ccc(F)cc3)CC4)c(Cl)cn2)C[C@@]1(C)CO | 64.7 |
| COc1cc(CNC(=O)CCCC/C=C/C(C)C)ccc1O | 128 |
| COC1=CC2=C(C=C1OC)[C@H]3[C@@H](CO2)OC4=C(C=CC5=C4\C=C/C(C)(C)O5)C3=O | 115 |
| CCCCn1c(=O)n(Cc2ccccc2F)c(=O)c2nc(Cc3ccc(NC(C)=O)cc3)[nH]c21 | 94 |
| N#C[C@H](O[C@@H]1O[C@H](CO[C@@H]2O[C@H](CO)[C@@H](O)[C@H](O)[C@H]2O)[C@@H](O)[C@H](O)[C@H]1O)c1ccccc1 | 98.6 |
| O=C1[C@H](Cc2ccc(O)cc2)N2C(=O)CCN(C(=O)NCc3ccccc3)[C@H]2CN1Cc1cccc2ccccc12 | 78.2 |
| COc1ccc(-c2oc3cc(OC)ccc3c2C(=O)c2ccc(C#N)cc2)cc1 | 142 |
| Cc1c(Cn2c(C)nc3c(C(=O)O)cc(N4CCOCC4)cc32)cccc1C(F)(F)F | 76.9 |
| O=C(O)C1(Cc2cccc(Nc3nccs3)n2)CCC(Oc2cccc(Cl)c2F)CC1 (stereo not drawn) | 115 |

| SMILES | viability |
| --- | --- |
| CN1CCN(c2c(F)cc3c(=O)c(C(=O)O)cn(CCF)c3c2F)CC1 | 104 |
| CC(C)C[C@H](CN)CC(=O)O | 117 |
| CCn1c(-c2nonc2N)nc2c(C#CC(C)(C)O)ncc(OC[C@H]3CCCNC3)c21 | 100 |
| CC[C@]1(O)C[C@@H]2CN(CCc3c([nH]c4ccccc34)[C@@](C(=O)OC)(c3cc4c(cc3OC)N(C)[C@H]3[C@@](O)(C(N)=O)[C@H](O)[C@]5(CC)C=CCN6CC[C@]43[C@@H]65)C2)C1 | 114 |
| COc1cc(C)c(/C=C/C(C)=C/C=C/C(C)=C/C(=O)O)c(C)c1C | 101 |
| C/C(O)=C(\C#N)C(=O)Nc1ccc(C(F)(F)F)cc1 | 94.3 |
| N#Cc1ccc(Oc2ccc3c(c2)COB3O)cc1 | 124 |
| NCCS(=O)(=O)O | 123 |
| OC[C@H]1O[C@H](C[C@@H]1O)N2/C=C(C(=O)NC2=O)/C(F)(F)F | 103 |
| CC(=O)OC\C1=C(\[N@]2[C@@H](SC1)[C@H](N)C2=O)C(O)=O | 143 |
| CCOC(=O)N1CCN(/[N+]([O-])=N/Oc2ccc([N+](=O)[O-])cc2C#N)CC1 | 92.1 |
| CC(C)c1cc(C(C)C)c(CC(=O)N[S+](=O)([O-])Oc2c(C(C)C)cccc2C(C)C)c(C(C)C)c1 | 99.7 |
| O=C1Nc2cc(Br)ccc2/C1=C1/Nc2ccccc2/C1=N\O | 31.3 |
| C[C@]12CCC\3=C\4CCC(=O)\C=C4CC[C@H]3[C@@H]1CC[C@@]2(O)CC#N | 122 |
| COc1cc(NCc2ccc3nc(N)nc(N)c3c2C)cc(OC)c1OC | 99.5 |
| Cc1ccc([S+](=O)([O-])OCC(=O)Nc2ccc(C(=O)O)c(O)c2)cc1 | 91.4 |
| Nc1nc(OCc2ccccc2)c2nc[nH]c2n1 | 111 |
| CCC(=O)O[C@@]1([C@H](C)C[C@H]2[C@@H]3C[C@H](F)\C4=C\C(=O)\C=C/[C@]4(C)[C@@]3(F)[C@@H](O)C[C@]12C)C(=O)SCF | 162 |
| Nc1ccc([S+](=O)([O-])Nc2ccccn2)cc1 | 115 |
| CCc1nc(N)nc(N)c1-c1ccc(Cl)cc1 | 97.1 |
| C[C@H]([C@H](O)CCC(C)(C)O)[C@H]1CC[C@@]2(O)C/3=C/C(=O)[C@@H]4C[C@@H](O)[C@@H](O)C[C@]4(C)[C@H]3CC[C@]12C | 120 |

| SMILES | viability |
| --- | --- |
| CC(C)(C)C(=O)OCOP(=O)(COCCn1cnc2c(N)ncnc21)OCOC(=O)C(C)(C)C | 93 |
| COC1=CC=C(C=C1)/C2=C(O)/C(=O)C3=C(O)C=C(O)C(=C3O2)CC=C(C)C | 138 |
| NC/1=N/C(=O)C2=C([NH]C=C2CCC3=CC=C(C=C3)C(=O)N[C@@H](CCC(O)=O)C(O)=O)N1 | 119 |
| Clc1ccccc1C(c1ccccc1)(c1ccccc1)n1cccn1 | 105 |
| CCOc1ccccc1N/N=C1/C(=O)N(c2nc(-c3ccccc3)cs2)N=C1C | 115 |
| O=C(O)CCCCC(CCSCc1ccccc1)SCc1ccccc1 (stereo not drawn) | 130 |
| COc1cc(C)c(Sc2cnc(NC(=O)c3ccc(CNC(C)C(C)(C)C)cc3)s2)cc1C(=O)N1CCN(C(C)=O)CC1 (stereo not drawn) | 71.7 |
| COc1ccc(CC2SC(=O)NC2=O)cc1C(=O)NCc1ccc(C(F)(F)F)cc1 (stereo not drawn) | 95.6 |
| COc1ccc(C2(C#N)CCC(C(=O)O)CC2)cc1OC1CCCC1 (stereo not drawn) | 123 |
| CC[N+](CC)(CC)CCOc1cccc(OCC[N+](CC)(CC)CC)c1OCC[N+](CC)(CC)CC | 97.6 |
| C[C@]12CCC(=O)C(O)=C1CC[C@@H]1[C@@H]2CC[C@]2(C)C(=O)CC[C@@H]12 | 113 |
| O=C1NC(=O)/C(=C/c2ccc3c(c2)OC(F)(F)O3)S1 | 94 |
| CCN(c1ccccc1)c1cc(NC)[n+](C)c(C)n1 | 115 |
| CC1OC(OC/2=C(/OC3=C(C(=CC(=C3)O)O)C2=O)C4=CC=C(O)C=C4)C(O)C(OC(C)=O)C1OC(C)=O (stereo not drawn) | 116 |
| C=CCc1cccc(/C=N/NC(=O)CN2CCN(Cc3ccccc3)CC2)c1O | 73.5 |
| Cc1cc(Nc2nc(N[C@@H](C)c3ncc(F)cn3)ncc2Cl)n[nH]1 | 163 |
| Nc1ccc([S+](=O)([O-])Nc2ncccn2)cc1 | 131 |
| C\C1=N\N(C(=O)C1)C2=CC=CC=C2 | 97.2 |
| Oc1ccc(/C=C/c2cc(O)cc(O)c2)cc1 | 96.3 |

same assay, conditions: library / dose series: MIPE library, 11-point 1:3 dilution; top concentration 92.2 µM; 48 h

| SMILES | viability |
| --- | --- |
| Cc1cn([C@H]2C=C[C@@H](CO)O2)c(=O)[nH]c1=O | 92.2 |
